According to patent US20100255004A1, “RECEPTOR TYROSINE KINASE PROFILING” (Dana Farber Cancer Institute, priority 2007, published 2010):
Structures can show the parent of a compound that is named as a salt. Blank lines part the entries; values can stand above or below the compound they belong to.

Columns and labels:
[1] = test system: PI3K signaling (p85α/GAB1 complex, P-AKT, P-S6); experiment: GAB1 immunoprecipitation and immunoblots of P-AKT and P-S6 in U87MG-EGFR* cells; format: cell-based, human; conditions: U87MG-EGFR* cells (PTEN mutant), 10 μM each inhibitor (FIG. 3C)
Description: U87MG parental cells or cells constitutively expressing wt EGFR, the activating vIII deletion mutant (EGFR*) or the vIII mutant with an inactivating mutation in its kinase domain (EGFR*-KD) were immunoprecipitated with an antibody to the RTK/PI-3K adaptor protein, GAB1 (left panel), then immunoblots were probed with the indicated antibodies. […] Whole cell extracts (WCE) from the same cells were immunoblotted with the indicated antibodies. […] C. […] Bottom panel: Un-immunoprecipitated whole cell extracts were immunoblotted with the indicated antibodies. […] Error bars indicate SEM, n=4. […] U87MG-EGFR* cells were transfected with empty vector, HRASV12, myristoylated-AKT, or p110α-CAAX, then treated with 10 μM each of erlotinib (E), SU11274 (S), and imatinib (I) in 0.05% serum-containing medium for 72 hours prior to assaying cell viability.
We also immunoblotted whole cell extracts with antibodies against MAPK and phosphorylated versions of AKT, MAPK, and S6 (FIG. 3C, bottom panel):
Following 30 min incubation in lysis buffer at 4° C., lysates were cleared by centrifugation at 10 k 10 min 4° C., then protein concentrations were determined by BioRad DC Protein Assay. […] Co-immunoprecipitated proteins were detected with either mouse or rabbit TrueBlot HRP conjugated secondaries (eBioscience). • Antibody arrays.

MET [2] = molecular target: T1, MET (Homo sapiens, UniProt P08581); experiment: Immunoblot of P-MET in LN382 and LN18 cells; format: cell-based; set-up: endogenous in cells; host or cells: LN382 and LN18 glioma cells; conditions: 1 μM, 24 hours (FIG. 4F)
Description: A-E. The glioma cell lines LN18 (wt PTEN), SF767 (wt PTEN), LN382 (mut PTEN) and LNZ308 (mut PTEN) were incubated in 0.05% serum-containing medium cells and treated with 10 μM erlotinib (E or T), 10 μM SU11274 (S), and/or 10 μM imatinib (I or G) and immunoblotted as in FIG. 3. […] LN382 and LN18 cells were treated with 1 μM each RTK inhibitor for 24 hours, then immunoblotted with antibodies to P-PDGFRβ and P-MET.

PDGFRβ = molecular target: T2, PDGFRβ (Homo sapiens, UniProt P09619); experiment: Immunoblot of P-PDGFRβ in LN382 and LN18 cells; format: cell-based; conditions: 1 μM, 24 hours (FIG. 4F)
T2 construct: endogenous in cells; host or cells: LN382 and LN18 glioma cells
Description: DNA is labeled with Hoechst 33342.

MET [3] = molecular target: T1, MET; experiment: RTK antibody array, phosphorylation of MET in U87MG-EGFR* cells; format: cell-based; set-up: endogenous in cells; conditions: 10 μM, RTK antibody array (FIG. 3B)
Description: Error bars indicate SEM, n=4.
Following 30 min incubation in lysis buffer at 4° C., lysates were cleared by centrifugation at 10 k 10 min 4° C., then protein concentrations were determined by BioRad DC Protein Assay. […] Tyrosine-phosphorylated proteins were visualized by separation on NuPAGE 3-8% Tris-Acetate gels (Invitrogen), blotted onto nitrocellulose, blocked with 3% Immunoblot Blocking Reagent (Upstate), then incubated with anti-phosphotyrosine antibody (4G10, Upstate). […] Co-immunoprecipitated proteins were detected with either mouse or rabbit TrueBlot HRP conjugated secondaries (eBioscience). • Antibody arrays. Cells were harvested as for immunoprecipitations above. Snap-frozen tumors were thawed in immunoprecipitation lysis buffer, homogenized by hand 50× with disposable 1.5 mL pestles, incubated 30 min 4° C. with inversion, homogenized 50×, then cleared by centrifugation at 10 k 10 min 4° C. Proteins were quantitated as above. RTK antibody arrays were purchased from R&D Systems (#ARY-001) and performed as recommended but with 2 mg protein lysate per array. • Soft agar colony formation.

PDGFR = experiment: p-PDGFR in LNZ308 cells; format: cell-based, human
Description: We then correlated inhibition of PI3K activity with biological effects of various combinations of RTK inhibitor treatment regimens. […] Second, we are mindful of the limitation of detection sensitivity by current antibody array technology and that a particular RTK may not be represented or be activated at an undetectable but biologically-relevant level. As shown in FIG. 4C-E, combination inhibition of RTKs in LN382 and LNZ308, both PTEN mutant GBM lines, effectively extinguished PI3K activity.

T1 sequence (P08581 25-1390): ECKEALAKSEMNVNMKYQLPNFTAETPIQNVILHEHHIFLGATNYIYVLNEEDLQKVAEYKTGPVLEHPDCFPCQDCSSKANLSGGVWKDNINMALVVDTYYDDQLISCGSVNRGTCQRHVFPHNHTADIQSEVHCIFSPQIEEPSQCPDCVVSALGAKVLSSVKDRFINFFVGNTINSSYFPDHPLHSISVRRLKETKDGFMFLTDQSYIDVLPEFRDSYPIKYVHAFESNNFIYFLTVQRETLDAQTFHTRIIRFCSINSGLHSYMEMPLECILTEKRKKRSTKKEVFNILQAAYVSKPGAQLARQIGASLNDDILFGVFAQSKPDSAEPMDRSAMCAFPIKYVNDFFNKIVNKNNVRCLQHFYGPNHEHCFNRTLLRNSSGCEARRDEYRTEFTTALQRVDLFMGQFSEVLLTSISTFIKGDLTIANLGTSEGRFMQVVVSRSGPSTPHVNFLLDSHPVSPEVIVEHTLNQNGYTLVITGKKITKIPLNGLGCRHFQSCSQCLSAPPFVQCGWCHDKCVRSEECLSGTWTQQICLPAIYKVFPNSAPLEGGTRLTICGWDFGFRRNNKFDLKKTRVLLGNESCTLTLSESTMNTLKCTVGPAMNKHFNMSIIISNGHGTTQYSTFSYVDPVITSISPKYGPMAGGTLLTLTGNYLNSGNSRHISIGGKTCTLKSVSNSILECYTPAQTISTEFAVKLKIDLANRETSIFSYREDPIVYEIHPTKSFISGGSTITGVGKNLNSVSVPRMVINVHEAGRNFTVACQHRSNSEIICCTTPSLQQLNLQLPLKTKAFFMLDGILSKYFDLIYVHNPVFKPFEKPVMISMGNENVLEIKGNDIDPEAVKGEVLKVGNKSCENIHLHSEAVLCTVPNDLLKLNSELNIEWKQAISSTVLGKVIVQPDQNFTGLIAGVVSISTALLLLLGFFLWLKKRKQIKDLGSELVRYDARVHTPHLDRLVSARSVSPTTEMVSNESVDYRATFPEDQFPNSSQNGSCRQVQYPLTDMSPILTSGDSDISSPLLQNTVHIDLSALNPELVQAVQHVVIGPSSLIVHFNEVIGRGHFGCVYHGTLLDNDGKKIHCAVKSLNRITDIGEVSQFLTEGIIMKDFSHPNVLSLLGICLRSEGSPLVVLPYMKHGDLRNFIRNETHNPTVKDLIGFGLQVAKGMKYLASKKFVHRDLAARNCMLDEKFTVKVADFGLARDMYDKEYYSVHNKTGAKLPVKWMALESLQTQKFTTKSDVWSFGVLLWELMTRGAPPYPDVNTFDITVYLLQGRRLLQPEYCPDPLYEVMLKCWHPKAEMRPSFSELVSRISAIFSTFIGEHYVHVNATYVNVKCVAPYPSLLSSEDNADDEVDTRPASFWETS
T2 sequence (P09619 33-1106): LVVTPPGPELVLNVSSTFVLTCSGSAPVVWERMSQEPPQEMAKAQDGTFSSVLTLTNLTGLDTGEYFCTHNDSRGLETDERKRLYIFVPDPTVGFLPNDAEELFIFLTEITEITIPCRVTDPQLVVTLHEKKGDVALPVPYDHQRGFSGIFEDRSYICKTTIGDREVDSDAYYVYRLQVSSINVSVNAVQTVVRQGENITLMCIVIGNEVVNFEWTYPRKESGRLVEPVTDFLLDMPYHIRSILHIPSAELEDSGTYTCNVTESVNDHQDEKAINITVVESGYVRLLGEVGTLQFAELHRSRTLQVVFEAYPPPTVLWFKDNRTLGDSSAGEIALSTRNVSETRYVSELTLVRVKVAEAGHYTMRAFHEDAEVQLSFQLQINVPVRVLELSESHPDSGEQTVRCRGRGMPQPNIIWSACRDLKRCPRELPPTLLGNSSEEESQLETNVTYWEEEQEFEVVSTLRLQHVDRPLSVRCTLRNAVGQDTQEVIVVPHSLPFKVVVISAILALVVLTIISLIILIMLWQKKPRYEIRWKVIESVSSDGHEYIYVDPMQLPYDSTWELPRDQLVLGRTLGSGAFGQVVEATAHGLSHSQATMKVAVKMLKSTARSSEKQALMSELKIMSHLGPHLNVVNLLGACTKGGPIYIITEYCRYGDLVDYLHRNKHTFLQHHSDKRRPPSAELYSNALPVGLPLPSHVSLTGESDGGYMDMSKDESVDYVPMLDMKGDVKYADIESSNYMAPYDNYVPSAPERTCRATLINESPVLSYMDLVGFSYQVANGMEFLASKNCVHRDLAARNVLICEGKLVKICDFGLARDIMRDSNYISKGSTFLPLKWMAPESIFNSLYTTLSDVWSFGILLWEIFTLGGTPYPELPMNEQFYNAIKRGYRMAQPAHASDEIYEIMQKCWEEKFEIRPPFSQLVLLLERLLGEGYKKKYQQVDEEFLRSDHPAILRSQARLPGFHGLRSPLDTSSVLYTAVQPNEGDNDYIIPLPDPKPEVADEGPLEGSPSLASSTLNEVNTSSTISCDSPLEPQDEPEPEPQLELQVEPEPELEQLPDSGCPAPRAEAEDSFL

phosphorylation of MET (MET [2]): decrease in phosphorylation of MET
Compound: Cc1ccc(NC(=O)c2ccc(CN3CCN(C)CC3)cc2)cc1Nc1nccc(-c2cccnc2)n1 [Gleevec™, Imatinib mesylate]
PI3K association with GAB1 and downstream activation of AKT and S6 [1]: did not significantly effect PI3K activation

Compound: Cc1[nH]c(/C=C2\C(=O)Nc3ccc(S(=O)(=O)N(C)c4cccc(Cl)c4)cc32)c(C)c1C(=O)N1CCN(C)CC1 [SU11274]
P-PDGFRβ (PDGFRβ): decrease in P-PDGFRβ
phosphorylation of intended target RTK (P-MET) (MET [3]): effectively blocked phosphorylation
PI3K association with GAB1 and downstream activation of AKT and S6 [1]: no discernable effect
p-PDGFR (PDGFR): diminishes p-PDGFR
